Experiment [1] relates to ATP Aptamer (DNA, aptamer) CCTGGGGGAGTATTGCGGAGGAAGG
The experiment is described as follows: HPLC-ESI-MS. The following applies: 1 mM KCl, 100 mM TEAAc (annealed in 50 mM KCl).

The test system of experiment [2] is Triplet G (DNA, aptamer) CCTGGGGGGGAGTATTGCGGGAGGGAAGG
The experiment is described as follows: HPLC-ESI-MS. The settings on record: 1 mM KCl, 100 mM TEAAc (annealed in 50 mM KCl).

In experiment [3] the test system is Quadruplet G (DNA, aptamer) CCTGGGGGGGGGAGTATTGCGGGGAGGGGAAGG
The experiment in a line: HPLC-ESI-MS. The following applies: 1 mM KCl, 100 mM TEAAc (annealed in 50 mM KCl).

For experiment [4], the system named is ATP Aptamer (DNA, aptamer) CCTGGGGGAGTATTGCGGAGGAAGG
The experiment is described as follows: ThT fluorescence light-up. The settings on record: 100 mM KCl; 50 mM Tris pH 7.5; 3- to 4-fold increase over non-G4 controls.

For experiment [5], the system named is Triplet G (DNA, aptamer) CCTGGGGGGGAGTATTGCGGGAGGGAAGG
The experiment is described as follows: ThT fluorescence light-up. The settings on record: 100 mM KCl; 50 mM Tris pH 7.5; 3- to 4-fold increase over non-G4 controls.

For experiment [6], the system named is Quadruplet G (DNA, aptamer) CCTGGGGGGGGGAGTATTGCGGGGAGGGGAAGG
The experiment in a line: ThT fluorescence light-up. The following applies: 100 mM KCl; 50 mM Tris pH 7.5; 3- to 4-fold increase over non-G4 controls.

Experiment [7] deals with Scrambled Aptamer (DNA, single strand) GTGCGCGAGTGTGAGCGAGAGTGAG
The experiment is described as follows: label-free ThT fluorescence. The settings on record: 100 mM KCl; 50 mM Tris pH 7.5; ThT present; slow annealing with ATP.

The subject of experiment [8] is GAT (DNA, single strand) GATAGCGTCACTCGATCT
The experiment is described as follows: label-free ThT fluorescence. The following applies: 100 mM KCl; 50 mM Tris pH 7.5; ThT present; slow annealing with ATP.

Experiment [9] relates to FAM-ATP Aptamer (DNA, aptamer) TTCCTGGGGGAGTATTGCGGAGGAAGG
The experiment is described as follows: FAM fluorescence increase, single-site fit. The settings on record: 100 mM KCl; 50 mM Tris pH 7.5; slow annealing with ATP 0-10 μM; 0.50 μM aptamer.

In experiment [10] the test system is ATP Aptamer-FAM (DNA, aptamer) TTCCTGGGGGAGTATTGCGGAGGAAGG
The experiment in a line: FAM fluorescence increase, single-site fit. The following applies: 100 mM KCl; 50 mM Tris pH 7.5; slow annealing with ATP 0-10 μM; 0.50 μM aptamer.

For experiment [11], the system named is FAM-Triplet G (DNA, aptamer) TTCCTGGGGGGGAGTATTGCGGGAGGGAAGG
The experiment is described as follows: FAM fluorescence increase, single-site fit. The following applies: 100 mM KCl; 50 mM Tris pH 7.5; slow annealing with ATP 0-10 μM; 0.50 μM aptamer.

The subject of experiment [12] is FAM-Quadruplet G (DNA, aptamer) TTCCTGGGGGGGGGAGTATTGCGGGGAGGGGAAGG
The experiment in a line: FAM fluorescence increase, single-site fit. The following applies: 100 mM KCl; 50 mM Tris pH 7.5; slow annealing with ATP 0-10 μM; 0.50 μM aptamer.

Experiment [13] has as its system ATP Aptamer (DNA, aptamer) CCTGGGGGAGTATTGCGGAGGAAGG
The experiment is described as follows: label-free ThT fluorescence increase, single-site fit. The following applies: 100 mM KCl; 50 mM Tris pH 7.5; ThT 0.5 μM present; slow annealing with ATP; apparent.

In experiment [14] the test system is Triplet G (DNA, aptamer) CCTGGGGGGGAGTATTGCGGGAGGGAAGG
The experiment is described as above. The following applies: 100 mM KCl; 50 mM Tris pH 7.5; ThT 0.5 μM present; slow annealing with ATP; apparent.

Experiment [15] relates to Quadruplet G (DNA, aptamer) CCTGGGGGGGGGAGTATTGCGGGGAGGGGAAGG
The experiment is described as above. The settings on record: 100 mM KCl; 50 mM Tris pH 7.5; ThT 0.5 μM present; slow annealing with ATP; apparent.

Setting [16] is: G4:ATP:ThT 1:5:5 mixed, ternary complex with ATP.
Where [17] appears, read: 1 mM Tris, G4:ATP 1:5 mixed, also with ThT.

The structures appear in SMILES notation.

As to `Cc1ccc2c(c1)sc(-c1ccc(N(C)C)cc1)[n+]2C`, the binding result in [1] (setting [16]), in [2] (setting [16]), in experiment [3] (setting [16]), in experiment [4], in experiment [5] and in experiment [6] was “yes” each time.

Regarding `Nc1ncnc2c1ncn2[C@@H]1O[C@H](COP(=O)(O)OP(=O)(O)OP(=O)(O)O)[C@@H](O)[C@H]1O`, the binding result in experiment [1] (setting [17]) is reported as “yes”; in experiment [2] (setting [17]), “yes”; in experiment [3] (setting [17]), “yes”; in [7] it was “no”; in experiment [8], “no”. The Kd in [9] came out at 150 nM; in [10] it was 620 nM; in [11], 40 nM; in [12] it was 42 nM; in experiment [13] it was 830 nM; in [14] it was 71 nM. Moreover, the Kd in experiment [15] stood at 170 nM.
